Laboratory results published in article PMC9715504, “The blood-to-plasma ratio and predicted GABAA-binding affinity of designer benzodiazepines” (Forensic Toxicology, 2022).
Where two headings read alike, the source gives them in different places.

Legend:
[1] = Determination of the blood-to-plasma ratio (spiked whole blood and plasma, GC–MS of plasma); assay type: in vitro ADME; settings: pooled human blood, haematocrit 41%, 1 h at 37 °C; for blood plasma ratio at 1 h, 5 µM: both sexes, pooled whole blood and plasma, read-out: Kb/p experimental (blood-to-plasma ratio); for Kb/p experimental (blood-to-plasma ratio): 5 µM
Method: Human blood (pooled, from three male donors and three female donors) was obtained from Seralab (West Sussex, UK). Blood was received chilled with sodium citrate as an anticoagulant and kept at 4 °C until use. The blood was used prior to its expiration date. Blood haematocrit was 41%, as provided by the supplier.
In this method, only analysis of the plasma is required. Briefly, the compound is spiked into equal volumes of whole blood and plasma. Following equilibration, the whole blood is centrifuged to extract the plasma. The extracted plasma and the original plasma are analysed to obtain compound concentrations. The blood-to-plasma ratio can then be calculated from Eq. 1 (shown below).
In this work, aliquots of whole blood (5 mL) were centrifuged at 2500 rpm for 20 min to provide plasma. This was performed on the day of the experiments. The plasma was removed and stored at 4 °C until use (typically within 2 h).
The compounds were dissolved in DMSO or acetonitrile to produce 5 mM stock solutions. Stock solutions were diluted with PBS (pH 7.4) to produce working solutions (50 µM) on the day of experimentation. Stock solutions were stored for no longer than 1 week. Appropriate volumes of working solutions were added to blood or plasma to yield a final compound concentration of 5 µM (final solvent concentrations were 0.1%). The treated blood or plasma samples were incubated for 1 h at 37 °C. Following incubation, the blood sample was removed and centrifuged at 2500 rpm for 20 min and the plasma was extracted. The 250 µL of extracted plasma (from spiked whole blood) and 250 µL of spiked plasma had ice-cold acetonitrile added to precipitate proteins (4:1 ratio of acetonitrile-to-plasma). Both plasma samples were then centrifuged at 10,000 rpm for 20 min. The supernatants were collected and evaporated under a stream of nitrogen using a Biotage Turbovap LV Evaporator. The evaporated samples were reconstituted in 150 µL acetonitrile and analysed using gas chromatography–mass spectrometry (GC–MS).
The […] was calculated using Eq. 11 Ke/p=1/H×CPRef/CP-1+1, where Ke/p is the red blood cell partition coefficient, H is the haematocrit, CPRef is the concentration (µM) in the reference plasma, and CP is the concentration (µM) in the plasma separated from the whole blood.
Ke/p describes the ratio of the concentration of drug in the red blood cells (not including plasma) to the concentration of drug in plasma. Ke/p can be converted to the blood-to-plasma ratio (Kb/p) with Eq. 22 Kb/p=(Ke/p×H)+1-H, where Kb/p is the blood-to-plasma ratio, Ke/p is the […], and H is the haematocrit. Kb/p therefore describes the ratio of the concentration of drug in whole blood (containing both red blood cells and plasma) to the concentration of the drug in plasma.

[2] = cited from earlier work; for Kb/p literature (blood-to-plasma ratio): literature range
[3] = ref 13; cited from earlier work
[4] = set-up: method as in PMID 31933443; settings: user reports; cited from earlier work
GABAA receptor = molecular target: GABAA receptor; set-up: method as in PMID 29685303; settings: QSAR, previous work; cited from earlier work

In the case of `CN(C)CCCN1c2ccccc2Sc2ccc(Cl)cc21` [Chlorpromazine, chlorpromazine], the blood plasma ratio at 1 h, 5 µM [1] is listed as 1.43 ± 0.32 and the “Kb/p literature (blood-to-plasma ratio)” value [2] is listed as 1.17–1.56.

For `O=C1CN=C(c2ccccc2Cl)c2cc([N+](=O)[O-])ccc2N1` [Clonazepam, clonazepam], the blood-to-plasma ratio ([2]; ref 37) is listed as 0.65.

In the case of `CCc1cc2c(s1)-n1c(C)nnc1CN=C2c1ccccc1` [Deschloroetizolam, deschloroetizolam], the plasma protein binding [3] is listed as 87.2% and the “Kb/p experimental (blood-to-plasma ratio)” value [1] is listed as 0.68 ± 0.06.

In the case of `CN1C(=O)CN=C(c2ccccc2Cl)c2cc(Cl)ccc21` [Diclazepam, diclazepam], the plasma protein binding [3] is given as 93.8% and the “Kb/p experimental (blood-to-plasma ratio)” value [1] is given as 0.82 ± 0.05.

For `CCc1cc2c(s1)-n1c(C)nnc1CN=C2c1ccccc1Cl` [Etizolam, etizolam], the plasma protein binding [3] is listed as 92.8% and the blood plasma ratio at 1 h, 5 µM [1] is listed as 0.7 ± 0.03.

For `Cc1nnc2n1-c1sc(Cl)cc1C(c1ccccc1F)=NC2` [Fluclotizolam], the “dose reported as having a 'heavy effect'” value [4] is listed as “more than 0.75 mg”.

`C[C@@H]1N=C(c2ccccc2Cl)c2cc([N+](=O)[O-])ccc2NC1=O` [Meclonazepam, meclonazepam] gave a blood plasma ratio at 1 h, 5 µM [1] of 0.83 ± 0.08.

For `O=C1CN=C(c2ccccc2)c2cc([N+](=O)[O-])ccc2N1` [Nitrazepam, nitrazepam], the blood plasma ratio at 1 h, 5 µM [1] is listed as 0.63 ± 0.02, the blood-to-plasma ratio ([2]; calculated from literature whole blood and plasma concentrations (125-I radioimmunoassay)) is listed as 0.57 ± 0.27 and the blood-to-plasma ratio ([2]; commonly reported value, origin unclear) is listed as 1.0. For the same compound, the “Kb/p literature (blood-to-plasma ratio)” value [2] was 0.57–1.00.

In the case of `O=C1CN=C(c2ccccc2Cl)c2cc(Br)ccc2N1` [Phenazepam, phenazepam], the plasma protein binding [3] is listed as 98.3% and the blood plasma ratio at 1 h, 5 µM [1] is listed as 0.57 ± 0.13.

In the case of `Cc1nnc2n1-c1ccc(Br)cc1C(c1ccccn1)=NC2` [Pyrazolam, pyrazolam], the plasma protein binding [3] is listed as 78.7% and the “Kb/p experimental (blood-to-plasma ratio)” value [1] is listed as 1.18 ± 0.03.

In the case of `C=C[C@H]1C[N@@]2CC[C@H]1C[C@H]2[C@H](O)c1ccnc2ccc(OC)cc12` [Quinine, quinine], the blood plasma ratio at 1 h, 5 µM [1] is given as 1.66 ± 0.52 and the “Kb/p literature (blood-to-plasma ratio)” value [2] is given as 1.46–2.00.

In the case of `Cc1nnc2n1-c1ccc([N+](=O)[O-])cc1C(c1ccccc1F)=NC2` [flunitrazolam], the “predicted log 1/c value” (GABAA receptor) is listed as 8.88.

For `O=C1Nc2ccc(Cl)cc2C(c2ccccc2Cl)=NC1O` (stereo not drawn) [lorazepam], the blood-to-plasma ratio ([2]; ref 16) is listed as 0.60 and the blood-to-plasma ratio ([2]; ref 38) is listed as 1.14.
